According to US20250152585A1, “PHARMACEUTICAL COMPOUND” (Duke Street Bio Limited, priority 2022, published 2025):
Like-named read-outs stand apart in the source and are kept apart here.

Assays:
[1] = target: T1, N-terminally FLAG-tagged PARP2 (amino acids 1-583) (Homo sapiens, UniProt Q9UGN5); assay: PARP2 probe displacement HTRF assay; assay type: binding; conditions: binned Kd
T1 construct: N-terminally FLAG-tagged PARP2 (amino acids 1-583)
Description: Data analysis was performed identical as for PARP1.

[2] = target: T2, full length N-terminally FLAG-tagged PARP1 (Homo sapiens, UniProt P09874); assay: PARP1 biochemical DELFIA assay (auto-PARylation); set-up: recombinant full length human N-terminally FLAG-tagged PARP1
[3] = target: T2, full length N-terminally FLAG-tagged PARP1; assay: PARP1 probe displacement HTRF assay; conditions: for Selectivity: PARP1 over PARP2, ratio Kd (PARP2)/Kd (PARP1); for Kd: binned Kd
[4] = binned IC50, biochemical auto-PARylation assay
[5] = read-out: PARP1 HTRF, probe displacement HTRF
[6] = binned IC50, PARP1 biochemical DELFIA assay
[7] = read-out: PARP1 HTRF, PARP1 probe displacement HTRF
[8] = PARP1 HTRF, probe displacement HTRF

T1 sequence (Q9UGN5 whole entry, the tested form may be a part): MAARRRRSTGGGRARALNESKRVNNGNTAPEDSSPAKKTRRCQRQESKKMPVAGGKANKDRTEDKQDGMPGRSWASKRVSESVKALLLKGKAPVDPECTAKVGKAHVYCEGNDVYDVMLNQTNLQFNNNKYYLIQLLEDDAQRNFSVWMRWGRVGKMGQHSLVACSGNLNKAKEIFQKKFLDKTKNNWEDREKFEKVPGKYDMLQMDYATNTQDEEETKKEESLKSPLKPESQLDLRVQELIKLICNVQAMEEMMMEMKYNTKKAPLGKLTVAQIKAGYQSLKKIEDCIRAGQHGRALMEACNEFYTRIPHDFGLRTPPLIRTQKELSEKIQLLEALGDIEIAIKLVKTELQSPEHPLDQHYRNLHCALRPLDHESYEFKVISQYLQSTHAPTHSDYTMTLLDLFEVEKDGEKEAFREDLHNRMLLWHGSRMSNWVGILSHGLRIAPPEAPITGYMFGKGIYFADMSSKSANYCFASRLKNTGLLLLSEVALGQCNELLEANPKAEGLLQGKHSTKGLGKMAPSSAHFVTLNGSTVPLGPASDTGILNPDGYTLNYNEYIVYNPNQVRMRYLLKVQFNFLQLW
T2 sequence (P09874 whole entry): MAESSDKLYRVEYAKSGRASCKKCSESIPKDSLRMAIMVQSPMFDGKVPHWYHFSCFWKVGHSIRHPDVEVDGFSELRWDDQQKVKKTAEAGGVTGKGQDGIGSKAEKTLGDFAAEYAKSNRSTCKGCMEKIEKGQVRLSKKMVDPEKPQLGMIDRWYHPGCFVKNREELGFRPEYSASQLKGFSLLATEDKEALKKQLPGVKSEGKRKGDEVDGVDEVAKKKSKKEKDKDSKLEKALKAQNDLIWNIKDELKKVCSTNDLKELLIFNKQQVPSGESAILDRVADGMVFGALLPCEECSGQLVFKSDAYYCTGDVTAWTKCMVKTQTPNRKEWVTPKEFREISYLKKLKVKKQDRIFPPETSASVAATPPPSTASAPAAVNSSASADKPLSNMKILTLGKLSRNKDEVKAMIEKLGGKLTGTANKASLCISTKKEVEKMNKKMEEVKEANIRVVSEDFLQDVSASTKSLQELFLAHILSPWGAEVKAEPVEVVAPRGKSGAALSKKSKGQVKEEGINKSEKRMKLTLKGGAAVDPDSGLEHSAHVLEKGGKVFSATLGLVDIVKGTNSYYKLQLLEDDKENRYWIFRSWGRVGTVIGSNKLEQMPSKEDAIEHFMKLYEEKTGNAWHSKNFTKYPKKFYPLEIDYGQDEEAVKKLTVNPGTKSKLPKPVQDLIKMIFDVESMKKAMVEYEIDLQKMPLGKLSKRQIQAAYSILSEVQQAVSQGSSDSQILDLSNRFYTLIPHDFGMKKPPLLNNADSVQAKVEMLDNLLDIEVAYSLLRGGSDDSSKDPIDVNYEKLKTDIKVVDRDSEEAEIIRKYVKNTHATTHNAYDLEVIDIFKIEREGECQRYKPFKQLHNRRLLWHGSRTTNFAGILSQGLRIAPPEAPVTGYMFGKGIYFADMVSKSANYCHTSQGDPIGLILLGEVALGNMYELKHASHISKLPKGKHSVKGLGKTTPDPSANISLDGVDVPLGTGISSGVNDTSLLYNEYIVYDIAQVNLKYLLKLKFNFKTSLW

Row | SMILES | IC50 [2, 6] [µM] | Selectivity ([3]; probe displacement HTRF) | further results
1 | N#Cc1ccc(N2CCC(N3CCC(c4cc5ccc(F)cc5c(=O)[nH]4)C3)CC2)c(F)c1 (single isomer, unassigned) [Compound 385a] | – | +++ (+++ indicate a value of at least 100) | Kd ([1]; probe displacement HTRF): 1 to 10 µM; IC50 [2, 4]: < 0.01 µM; Kd [3, 5]: < 0.01 µM
2 | O=C(NC1COC1)c1ccc(N2CCC(N3CCC(c4nc5ccccc5c(=O)[nH]4)C3)CC2)cn1 (racemic) [Compound 229rac] | – | +++ (+++ indicate a value of at least 100) | Kd ([1]; probe displacement HTRF): 0.1 to 1 µM; IC50 [2, 4]: 0.01 to 0.1 µM; Kd [3, 5]: < 0.01 µM
3 | CNC(=O)c1ccc(N2CCC(N3CC4(c5nc6cccc(F)c6c(=O)[nH]5)CC3C4)CC2)cn1 [Compound 227] | – | +++ (+++ indicate a value of at least 100) | Kd ([1]; probe displacement HTRF): 0.1 to 1 µM; IC50 [2, 4]: < 0.01 µM; Kd [3, 8]: < 0.01 µM
4 | CNC(=O)c1ncc(N2CCC(N3CCC(c4cc5cccc(F)c5c(=O)[nH]4)C3)CC2)c(C(F)(F)F)n1 (single isomer, unassigned) [Compound 277b] | – | ++ (++ indicates a value of 50 to less than 100) | Kd ([1]; probe displacement HTRF): > 10 µM; IC50 [2, 4]: 0.01 to 0.1 µM; Kd [3, 5]: 0.01 to 0.1 µM
5 | Cc1n[nH]c(-c2ccc(N3CCC(N4CCC(c5nc6ccccc6c(=O)[nH]5)C4)CC3)cn2)n1 (racemic) [Compound 275rac] | – | + (+ indicates a value of 10 to less than 50) | Kd ([1]; probe displacement HTRF): 0.1 to 1 µM; IC50 [2, 4]: < 0.01 µM; Kd [3, 5]: < 0.01 µM
6 | CNC(=O)c1ccc(N2CCC(N3CCC(c4cc5ncc(Cl)cc5c(=O)[nH]4)C3)CC2)c(F)n1 (single isomer, unassigned) [Compound 344a] | – | +++ (+++ indicate a value of at least 100) | Kd ([1]; probe displacement HTRF): > 10 µM; IC50 [2, 4]: < 0.01 µM; Kd [3, 5]: < 0.01 µM
7 | CNC(=O)c1ccc(N2CCC(N3CC4(c5nc6c(c(=O)[nH]5)CCCC6)CC3C4)CC2)c(F)n1 [Compound 389] | – | +++ (+++ indicate a value of at least 100) | Kd ([1]; probe displacement HTRF): 0.1 to 1 µM; IC50 [2, 4]: < 0.01 µM; Kd [3, 8]: < 0.01 µM
8 | N#Cc1ccc(N2CCC(N3CCC(c4nc5ccccc5c(=O)[nH]4)C3)CC2)cc1 (single isomer, unassigned) [Compound 34a] | 0.01 to 0.1 | − (− indicates a value of less than 10) | Kd ([1]; PARP2 probe displacement HTRF): 0.1 to 1 µM; Kd [3, 7]: 0.01 to 0.1 µM
9 | O=C(NCC(F)F)c1ccc(N2CCC(N3CCC(c4cc5ccc(F)cc5c(=O)[nH]4)C3)CC2)c(F)n1 (single isomer, unassigned) [Compound 399b] | – | + (+ indicates a value of 10 to less than 50) | Kd ([1]; probe displacement HTRF): 0.01 to 0.1 µM; IC50 [2, 4]: < 0.01 µM; Kd [3, 5]: < 0.01 µM
10 | CNC(=O)c1cc(C)c(N2CCC(N3CCC(c4nc5ccccc5c(=O)[nH]4)C3)CC2)c(C)n1 (single isomer, unassigned) [Compound 224a] | – | − (− indicates a value of less than 10) | Kd ([1]; probe displacement HTRF): 1 to 10 µM; IC50 [2, 4]: 0.1 to 1 µM; Kd [3, 5]: 1 to 10 µM
11 | CNC(=O)c1ccc(N2CCC(N3CCCC(C)(c4nc5ccccc5c(=O)[nH]4)C3)CC2)cn1 (single isomer, unassigned) [Compound 66b] | 1 to 10 | − (− indicates a value of less than 10) | Kd ([1]; PARP2 probe displacement HTRF): > 10 µM; Kd [3, 7]: 1 to 10 µM
12 | CNC(=O)c1ccc(N2CCC(N3CCC(c4[nH]c(=O)c5cc(F)ccc5c4F)C3)CC2)cn1 (single isomer, unassigned) [Compound 401a] | – | +++ (+++ indicate a value of at least 100) | Kd ([1]; probe displacement HTRF): 0.01 to 0.1 µM; IC50 [2, 4]: < 0.01 µM; Kd [3, 5]: < 0.01 µM
13 | CNC(=O)c1ccc(N2CCC(N3CCC(c4ncc(C(F)(F)F)c(=O)[nH]4)C3)CC2)cn1 (single isomer, unassigned) [Compound 56a] | 0.1 to 1 | ++ (++ indicates a value of 50 to less than 100) | Kd ([1]; PARP2 probe displacement HTRF): > 10 µM; Kd [3, 7]: 0.01 to 0.1 µM
14 | CCc1cnc(-c2cnn(C3CCN(c4ccc(C(=O)NC)nc4)CC3)c2)[nH]c1=O [Compound 20] | 0.01 to 0.1 | ++ (++ indicates a value of 50 to less than 100) | Kd ([1]; PARP2 probe displacement HTRF): > 10 µM; Kd ([3]; PARP1 HTRF, PARP1 probe displacement HTRF): 0.01 to 0.1 µM
15 | CCc1cnc(C2CCCN(C3CCC(F)(F)CC3)C2)[nH]c1=O (single isomer, unassigned) [Compound 24a] | 1 to 10 | – | –
16 | CCc1cnc(C2CCN(C3CCC(F)(F)CC3)CC2)[nH]c1=O [Compound 21] | 1 to 10 | – | –
17 | CNC(=O)c1ccc(N(C)CCCN2CCCC(c3nc4ccccc4c(=O)[nH]3)C2)cn1 (single isomer, unassigned) [Compound 16b] | 0.1 to 1 | – | –
18 | CNC(=O)c1ccc(N(C)CCCN2CCCC(c3nc4ccccc4c(=O)[nH]3)C2)cn1 (single isomer, unassigned) [Compound 16a] | 0.1 to 1 | – | –
19 | CNC(=O)c1ccc(N(C)CCCN2CCC(c3nc4ccccc4c(=O)[nH]3)CC2)cn1 [Compound 12] | 0.1 to 1 | – | –

Row | SMILES | IC50 [2, 6] [µM] | Selectivity ([3]; probe displacement HTRF) | further results
20 | CNC(=O)c1ccc(N2CCC(N3CCCC(c4ncc(C)c(=O)[nH]4)C3)CC2)cn1 (single isomer, unassigned) [Compound 33a] | > 10 | – | –
21 | CCc1cnc(C2CCN(CC3CCN(c4ccc(C(=O)NC)nc4)CC3)CC2)[nH]c1=O [Compound 29] | 1 to 10 | – | –
22 | CNC(=O)c1ccc(N2CCC(N3CCCC(c4nc5ccccc5c(=O)[nH]4)C3)CC2)c(C)n1 (centres unmarked) [Compound 131] | 1 to 10 | – | –
23 | CNC(=O)c1ccc(N(C)CCN2CCCC(Cc3nc4ccccc4c(=O)[nH]3)C2)cn1 (single isomer, unassigned) [Compound 13a] | 1 to 10 | – | –
24 | CNC(=O)c1ccc(N2CCC(N3CCC(c4nc5ccccc5c(=O)[nH]4)CC3)CC2)cn1 [Compound 1] | 0.1 to 1 | – | –
25 | O=c1[nH]c(C2CCN(C3CCC(F)(F)CC3)C2)nc2ccccc12 (single isomer, unassigned) [Compound 4b] | 0.1 to 1 | – | –
26 | CNC(=O)c1ccc(N2CCC(n3ccc(-c4nc5ccccc5c(=O)[nH]4)n3)CC2)cn1 [Compound 15] | 0.1 to 1 | – | –
27 | CNC(=O)c1ccc(N2CC(N3CCCC(c4nc5ccccc5c(=O)[nH]4)C3)C2)cn1 (single isomer, unassigned) [Compound 23a] | 0.1 to 1 | – | –
28 | CNC(=O)c1ccc(OCCN2CCCC(Cc3nc4ccccc4c(=O)[nH]3)C2)cn1 (single isomer, unassigned) [Compound 14a, N-methyl-5-(2-(3-((4-oxo-3,4-dihydroquinazolin-2-yl)methyl)piperidin-1-yl)ethoxy)picolinamide] | 1 to 10 | – | –
29 | CCc1cnc(-c2ccn(C3CCN(c4ccc(C(=O)NC)nc4)CC3)c2)[nH]c1=O [Compound 22] | 1 to 10 | – | –
30 | O=c1[nH]c(C2CCCN(C3CCC(F)(F)CC3)C2)nc2ccccc12 (single isomer, unassigned) [Compound 3a] | 0.1 to 1 | – | –
31 | CNC(=O)c1ccc(N2CCC(c3nc4ccccc4c(=O)[nH]3)CC2)cn1 [Compound 5] | 1 to 10 | – | –
32 | CNC(=O)c1ccc(N2CC(N3CCC(c4nc5ccccc5c(=O)[nH]4)CC3)C2)cn1 [Compound 28] | 0.1 to 1 | – | –
33 | CCc1cnc(C2CCN(C3CCN(c4ccc(C(=O)NC)nc4)CC3)CC2)[nH]c1=O [Compound 19] | 1 to 10 | – | –
34 | CNC(=O)c1ccc(OCCCN2CCCC(c3nc4ccccc4c(=O)[nH]3)C2)cn1 (single isomer, unassigned) [Compound 7b] | 0.1 to 1 | – | –
35 | CCc1cnc(-c2ccn(C3CCN(c4ccc(C(=O)NC)nc4)CC3)n2)[nH]c1=O [Compound 25] | 0.1 to 1 | – | –
36 | CNC(=O)c1ccc(N2CCC(CN3CCC(c4ncc(C)c(=O)[nH]4)CC3)CC2)cn1 [Compound 30] | 0.1 to 1 | – | –
37 | CNC(=O)c1ccc(N2CCC(n3ccc(-c4nc5ccccc5c(=O)[nH]4)c3)CC2)cn1 [Compound 18] | 0.1 to 1 | – | –
38 | CCc1cnc(C2CCCN(C3CCN(c4ccc(C(=O)NC)nc4)CC3)C2)[nH]c1=O (single isomer, unassigned) [Compound 31a] | 1 to 10 | – | –

Further lines, with some results ahead:

Row | IC50 [2, 6] [µM] | SMILES | Selectivity ([3]; probe displacement HTRF) | further results
39 | 0.1 to 1 | CNC(=O)c1ccc(N2CCC(N3CCC(c4nc5onc(C)c5c(=O)[nH]4)C3)CC2)cn1 (single isomer, unassigned) [Compound 149a] | + (+ indicates a value of 10 to less than 50) | Kd ([1]; PARP2 probe displacement HTRF): > 10 µM; Kd [3, 7]: 0.1 to 1 µM
40 | < 0.01 | CNC(=O)c1ccc(N2CCC(N3CCC(c4cc5cccc(F)c5c(=O)[nH]4)C3)CC2)c(Cl)n1 (single isomer, unassigned) [Compound 183a] | +++ (+++ indicate a value of at least 100) | Kd ([1]; PARP2 probe displacement HTRF): 1 to 10 µM; Kd [3, 7]: < 0.01 µM
41 | < 0.01 | CNC(=O)c1ccc(N2CC(N3CCCC(c4nc5ccccc5c(=O)[nH]4)CC3)C2)cn1 (single isomer, unassigned) [Compound 145b] | +++ (+++ indicate a value of at least 100) | Kd ([1]; PARP2 probe displacement HTRF): 1 to 10 µM; Kd [3, 7]: < 0.01 µM
42 | < 0.01 | CNC(=O)c1cc(C)c(N2CCC(N3CCC(c4cc5ccncc5c(=O)[nH]4)C3)CC2)c(C)n1 (racemic) [Compound 211rac] | +++ (+++ indicate a value of at least 100) | Kd ([1]; PARP2 probe displacement HTRF): 0.1 to 1 µM; Kd [3, 7]: < 0.01 µM
43 | 0.01 to 0.1 | CCc1ccc(C2CCN(C3CCN(c4ccc(C(=O)NC)nc4C(F)F)CC3)C2)[nH]c1=O (single isomer, unassigned) [Compound 164b] | +++ (+++ indicate a value of at least 100) | Kd ([1]; PARP2 probe displacement HTRF): > 10 µM; Kd [3, 7]: 0.01 to 0.1 µM
44 | < 0.01 | CNC(=O)c1ccc(N2CCC(N3CCC(c4nc5c(c(=O)[nH]4)CCCN5)C3)CC2)cn1 (single isomer, unassigned) [Compound 214b] | +++ (+++ indicate a value of at least 100) | Kd ([1]; PARP2 probe displacement HTRF): 0.1 to 1 µM; Kd [3, 7]: < 0.01 µM
